Where two headings read alike, the source gives them in different places.
Tests used:
human ERβ = molecular target: T1, human ERβ (Homo sapiens, UniProt Q92731); test: Radioligand binding competition with [3H]-17β-estradiol, ERβ
T1 construct: M250-V595 of human ERα [Green, et al., Nature 320: 134-9 (1986)] and M214-Q530 of human ERβ; Flag (C); made in house; host or cells: E. coli BL21(DE3)

human ERα = molecular target: T2, human ERα (Homo sapiens, UniProt P03372); test: Radioligand binding competition with [3H]-17β-estradiol, ERα; conditions: read-out: ER-α IC50
T2 sequence (P03372 250-595): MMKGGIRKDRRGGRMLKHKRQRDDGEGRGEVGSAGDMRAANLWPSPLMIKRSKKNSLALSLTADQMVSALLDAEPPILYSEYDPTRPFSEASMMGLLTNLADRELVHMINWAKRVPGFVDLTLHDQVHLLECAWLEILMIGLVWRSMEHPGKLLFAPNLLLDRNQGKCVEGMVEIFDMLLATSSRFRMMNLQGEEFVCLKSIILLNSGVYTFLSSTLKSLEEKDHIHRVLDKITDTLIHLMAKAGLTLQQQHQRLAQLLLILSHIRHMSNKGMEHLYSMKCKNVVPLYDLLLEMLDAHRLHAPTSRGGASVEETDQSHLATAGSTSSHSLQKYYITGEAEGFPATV

[1] = test system: metallothionein-II mRNA in Saos-2 cells; test: Regulation of metallothionein II mRNA in Saos-2 cells; assay type: cell-based
[2] = competition with [3H]-17β-estradiol, human ERα ligand binding domain
[3] = competition with [3H]-17β-estradiol, human ERβ ligand binding domain, read-out: ER-β IC50

T1 sequence (Q92731 214-530): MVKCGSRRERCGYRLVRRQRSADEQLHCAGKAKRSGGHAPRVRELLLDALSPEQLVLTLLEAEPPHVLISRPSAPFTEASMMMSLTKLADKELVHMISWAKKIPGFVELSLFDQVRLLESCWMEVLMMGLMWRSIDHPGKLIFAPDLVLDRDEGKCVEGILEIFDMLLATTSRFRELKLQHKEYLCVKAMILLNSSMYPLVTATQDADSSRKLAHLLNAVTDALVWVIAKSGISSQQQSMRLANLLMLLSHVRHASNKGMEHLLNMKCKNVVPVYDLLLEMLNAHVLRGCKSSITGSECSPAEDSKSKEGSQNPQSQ

IC50 (human ERβ) [µM]	IC50 (human ERα; [2]) [µM]	melting point	IC50 (human ERα) [µM]	Compound	IC50 (human ERβ; [3]) [µM]	Fold upregulation of metallothionein-II mRNA [1]
0.002	0.005	245 °C (dec.)	–	O=C1C(c2ccc(O)cc2)=C(Br)c2cc(O)ccc21 [Example 4, 3-Bromo-5-hydroxy-2-(4-hydroxyphenyl)-1H-inden-1-one]	–	10.4
–	> 5	250 °C (dec.)	–	CCNC1=C(c2ccc(O)cc2)C(=O)c2cc(O)ccc21 [Example 5, 3-(Ethylamino)-6-hydroxy-2-(4-hydroxyphenyl)-1H-inden-1-one]	2.7	–
–	0.4	118 to 120 °C	–	CCSC1=C(c2ccc(O)cc2)C(=O)c2ccc(O)cc21 [Example 7, 3-(Ethylthio)-5-hydroxy-2-(4-hydroxyphenyl)-1H-inden-1-one]	0.15	–
–	0.012	90 to 92 °C	–	CSC1=C(c2ccc(O)cc2)C(=O)c2cc(O)ccc21 [Example 8, 6-hydroxy-2-(4-hydroxyphenyl)-3-(methylthio)-1H-inden-1-one]	0.003	–
0.001	0.003	183 to 185 °C	–	CSC1=C(c2ccc(O)cc2)C(=O)c2ccc(O)cc21 [Example 9, 5-hydroxy-2-(4-hydroxyphenyl)-3-(methylthio)-1H-inden-1-one]	–	–
0.008	0.01	100 to 110 °C	–	O=C1C(c2ccc(O)cc2)=C(c2ccccc2)c2ccc(O)cc21 [Example 10, 6-hydroxy-2-(4-hydroxyphenyl)-3-phenyl-1H-inden-1-one]	–	–
0.005	0.015	222 to 225 °C	–	O=C1C(c2ccc(O)cc2)=C(c2ccccc2)c2cc(O)ccc21 [Example 11, 5-hydroxy-2-(4-hydroxyphenyl)-3-phenyl-1H-inden-1-one]	–	–
–	0.714	350 °C (dec.)	–	O=C1C(c2ccc(O)cc2)=C(Br)c2c(O)cc(O)cc21 [Example 15, 3-bromo-4,6-dihydroxy-2-(4-hydroxyphenyl)-1H-inden-1-one]	0.267	5.6
0.002	0.031	215 to 217 °C	–	CC1=C(c2ccc(O)cc2)C(=O)c2c(O)cc(O)cc21 [Example 17, 5,7-Dihydroxy-2-(4-hydroxyphenyl)-3-methyl-1H-inden-1-one]	–	–
–	–	208 to 210 °C	–	CSC1=C(c2ccc(O)cc2)C(=O)c2cc(O)cc(O)c21 [Example 18, 4,6-Dihydroxy-2-(4-hydroxyphenyl)-3-(methylthio)-1H-inden-1-one]	–	–
0.002	0.003	187 to 190 °C	–	CCSC1=C(c2ccc(O)cc2)C(=O)c2cc(O)cc(O)c21 [Example 19, 3-(Ethylthio)-4,6-Dihydroxy-2-(4-hydroxyphenyl)-1H-inden-1-one]	–	–
–	–	128 to 130 °C	0.003	O=C1C(c2ccc(O)cc2)=C(c2ccccc2)c2cc(O)cc(O)c21 [Example 21, 5,7-Dihydroxy-2-(4-hydroxyphenyl)-3-phenyl-1H-inden-1-one]	–	–
–	0.076	226 to 229 °C	–	CC1=C(c2ccc(O)cc2)C(=O)c2cc(O)c(O)cc21 [Example 22, 5,6-Dihydroxy-2-(4-hydroxyphenyl)-3-methyl-1H-inden-1-one]	0.131	–

Compound	IC50 (human ERβ) [µM]	IC50 (human ERα; [2]) [µM]	melting point	IC50 (human ERα) [µM]	IC50 (human ERβ; [3]) [µM]	Fold upregulation of metallothionein-II mRNA [1]
NC1=C(c2ccc(O)cc2)C(=O)c2ccc(O)cc21 [Example 1, 3-Amino-5-hydroxy-2-(4-hydroxyphenyl)-1H-inden-1-one]	1.15	> 5	260 to 265 °C	–	–	–
O=C1c2ccc(O)cc2C(=O)C1c1ccc(O)cc1 (stereo not drawn) [Example 2, 5-Hydroxy-2-(4-hydroxyphenyl)-1H-indene-1,3(2H)-dione]	–	–	227 to 228 °C	–	2.63	–
O=C1C(c2ccc(O)cc2)=C(Br)c2ccc(O)cc21 [Example 3, 3-Bromo-6-hydroxy-2-(4-hydroxyphenyl)-1H-inden-1-one]	–	0.29	240 °C (dec.)	–	–	10.8
CCSC1=C(c2ccc(O)cc2)C(=O)c2cc(O)ccc21 [Example 6, 3-(Ethylthio)-6-hydroxy-2-(4-hydroxyphenyl)-1H-inden-1-one]	–	0.01	78 to 81 °C	–	0.008	–
CC1=C(c2ccc(O)cc2)C(=O)c2cc(O)ccc21 [Example 12, 6-hydroxy-2-(4-hydroxyphenyl)-3-methyl-1H-inden-1-one]	–	0.055	240 to 245 °C	–	0.011	–
CC1=C(c2ccc(O)cc2)C(=O)c2ccc(O)cc21 [Example 13, 5-hydroxy-2-(4-hydroxyphenyl)-3-methyl-1H-inden-1-one]	–	0.006	251 °C	–	0.002	–
O=C1c2cc(O)cc(O)c2C(=O)C1c1ccc(O)cc1 (stereo not drawn) [Example 14, 4,6-dihydroxy-2-(4-hydroxyphenyl)-1H-inden-1,3(2H)-dione]	–	–	220 to 222 °C	–	1.38	–
COc1cc(O)cc2c1C(Br)=C(c1ccc(O)cc1)C2=O [Example 16, 3-bromo-6-hydroxy-2-(4-hydroxyphenyl)-4-methoxy-1H-inden-1-one]	–	0.2	210 °C (dec.)	–	0.15	–
O=C1C(c2ccc(O)cc2)=C(c2ccccc2)c2c(O)cc(O)cc21 [Example 20, 4,6-Dihydroxy-2-(4-hydroxyphenyl)-3-phenyl-1H-inden-1-one]	–	0.047	223 to 225 °C	–	0.044	–
